# According to patent US20110212235A1, “ANTIMICROBIAL SALT SOLUTIONS FOR CHEESE PROCESSING APPLICATIONS” (priority 2006, published 2011):
# How the values were obtained:
# Assay type in all cases: cell-based
# L. monocytogenes biofilm = assay: L. mono biofilm challenge in hot dog plant chill brine at −20° C.; conditions: for L. mono biofilm count, 1 hour: 1 hour at −20° C.; for L. mono biofilm count, 1 hour / L. mono biofilm count, 24 hours: hot dog plant chill brine with cooked turkey added; for L. mono biofilm count, 24 hours: 24 hours at −20° C.
# Method: Biofilms can provide a haven for pathogens, increasing their resistance to antimicrobial treatments, and thereby providing another possible source of food contamination. Tests were run to see if some embodiments were effective against a L. monocytogenes biofilm. Challenge tests were run according to the procedure below. Test solutions were prepared from a sample of hot dog plant chill brine which was treated with various levels of the alcohol ethoxylate surfactant. Cooked turkey was added to the test solution before inoculation to simulate a worst case “dirty” brine with a high degree of organic load.
# 1. Inoculate five cultures, L. monocytogenes H2446 (CDC Global Standard), Scott A-serotype 4b, 12243-serotype 1/2a, WP1 and WP4 in 10 ml Brain Heart Infusion broth (BHI). Incubate the tubes for 7 days at 10° C.+/−2° C. 2. Aseptically dispense 50 ml of sterile Tryptic Soy Broth (TSB)+0.6% Yeast Extract (YE) into sterile disposable 50 ml conical shaped plastic tubes. Make enough tubes for each time point. 3. Aseptically drop one coupon into the broth in each tube. 4. Make a cocktail of the five cultures and add 0.1 ml into each tube. Incubate the tubes for 7 days at 7° C.+/−2° C. 5. Dispense 40 ml of antimicrobial salt solutions containing sterile phosphate buffer into 50 ml plastic tubes. 6. After biofilm has grown, aseptically remove coupon and rinse each side for 5 seconds with sterile distilled water to remove unattached cells. 7. Aseptically drop each rinsed coupon into the antimicrobial salt solution tube and incubate for appropriate time (1 hour and 24 hour) at −20° C.+/−2° C. 8. Aseptically add 45 ml of sterile phosphate buffer (PBW) to 50 ml conical shaped plastic tubes along with 10 sterile glass beads. 9. After incubate time is complete, aseptically move the coupon from the antimicrobial salt solution to the sterile (PBW) solution containing beads. 10. Shake the tube with glass beads for about 2 minutes to remove attached cells. 11. Plate the cells in the PBW solution on TSA+0.6% YE using appropriate dilutions and incubate at 20° C. for 72+/−2 hours. 12. Plate the antimicrobial salt solution on TSA+0.6% YE using appropriate *dilutions and incubate 20° C. for 72+/−2 hours. *Please make note: The first dilution should take place in 9 ml DE Neutralizing Buffer. After incubation, count typical colonies and record results to cfu/g.
# [1] = tested on: Uncharacterized microorganisms cultured from raw ground beef; assay: Total plate count challenge of 24% NaCl brine with ground beef organisms; conditions: after 4 hours in 24% NaCl brine at −5° C.
# Method: Tests were run to determine the effectiveness of formulas against organisms other than L. monocytogenes. […] The test solutions were inoculated with the ground beef organism culture and incubated for 4 hours at −5° C. before plating.
# [2] = tested on: wild type coliforms from cheese plant brine; assay: Coliforms procedure in cheese brine or buffered solution
# black mold = assay: “Mold” procedure, black mold
# Method: (§1) In the present example, cultures of various microorganisms native to actual process brines used in cheese manufacture were obtained from a cheese plant. The cultures of yeast, mold, and coliforms were grown and used to test the efficacy of various antimicrobial additives in blue cheese brines. Organism cultures included four different types of yeast (three distinct while yeast cultures and a pink yeast), a black mold culture, a coliform culture, a culture of mixed green mold and yeast that were not separated, and a culture that was identified by the cheese plant as heterofermentative lactic acid bacteria, although no actual identification of the strain was carried out.
# (§2) “Mold” Procedure: • 1. From refrigerated stock mold cultures, take 1 ml from black mold dilution bottle added to 99 ml of cold Butterfield's Phosphate Buffered Water (PBW) to obtain 10^5 cfu/ml. • 2. Take 1 ml from green mold/white yeast mixture dilution bottle added to 99 ml of cold Butterfield's Phosphate Buffered Water (PBW) to obtain 10^6 cfu/ml. • 3. Plate serial dilutions of the cultures to get the starting count of the inoculum on Dichloran-Rose Bengal-Chloramphenicol Agar (DRBC). • 4. Add 1 ml of the diluted mold culture to 100 ml of cold test solution (do separately for each of the two mold cultures). • 5. Determine the population at time 0 and 4 hours. Spread plate serial dilutions to DRBC agar. • 6. Incubate the test solutions at 10° C.+/−2° C. for the duration of the experiment. • 7. Incubate the plates at 20° C.+/−2° C. for 5 days+/−2 hours. • 8. Count representative colonies and multiply by the dilution factor. Note: For black mold, each test solution should contain ˜10^3 cfu/ml. For green mold/white yeast mixture, each test solution should contain ˜10^4 cfu/ml.
# [3] = tested on: yeast cocktail (Raised, Rough and Flat white yeast and a pink yeast); assay: “Yeast” procedure, yeast cocktail
# From the text: as §1, with “The cultures of yeast, mold, and coliforms were grown and used to test the efficacy of various antimicrobial additives in blue cheese brines.” left out
# (§3) “Yeast” Procedure: • 1. Inoculate a separate tube containing 10 ml of Brain Heart Infusion (BHI) broth for each wild type (Raised, Rough and Flat white yeast along with a single pink yeast). Incubate for 5 days at 26° C.+/−2° C. • 2. Assume growth to be 10^7 cfu/ml. Since 4 cultures are being used, combine 2.75 ml of each culture added to 99 ml of cold Butterfield's Phosphate Buffered Water (PBW) to obtain 10^6 cfu/ml of yeast cocktail. • 3. Plate serial dilutions of the culture to get the starting count of the inoculum on Dichloran-Rose Bengal-Chloramphenicol Agar (DRBC). • 4. Add 1 ml of the diluted cocktail to 100 ml of cold test solution. • 5. Determine the population at time 0 and 4 hours. Spread plate serial dilutions to DRBC agar. • 6. Incubate the test solutions at 10° C.+/−2° C. for the duration of the experiment. • 7. Incubate the plates at 20° C.+/−2° C. for 5 days+/−2 hours. • 8. Count representative colonies and multiply by the dilution factor. Note: Each test solution should contain ˜10^4 cfu/ml.
# (§4) The brines were treated with different concentrations of octanoic acid and then challenged with a yeast cocktail (which included the pink and 3 different white mold types), the green mold+yeast combination, and coliforms.
# [4] = tested on: wild type coliforms from cheese plant brine; assay: Coliforms procedure in cheese brine or buffered solution; remark: listed apart in the source
# Method: as §1
# Coliforms Procedure: • 1. Inoculate a separate tube containing 10 ml of Brain Heart Infusion (BHI) broth for each wild type coliforms 1 and 2. Incubate for 24+/−2 hours at 35° C.+/−2° C. • 2. Assume growth to be 10^9 cfu/ml. Since two cultures are being used, combine 5.5 ml of each culture added to 99 ml of cold Butterfield's Phosphate Buffered Water (PBW) to obtain 10^8 cfu/ml. • 3. Plate serial ten-fold dilutions of the culture to get the starting count of the inoculum on Violet Red Bile Agar (VRBA). • 4. Add 1 ml of the diluted cocktail to 100 ml of cold test solution. • 5. Determine the population at time 0 and 4 hours by plating serial dilutions to VRBA spread plates. • 6. Incubate the test solutions at 10° C.+/−2° C. for the duration of the experiment. • 7. Incubate the plates at 20° C.+/−2° C. for 72+/−2 hours. • 8. Count representative colonies and multiply by the dilution factor. Note: Each test solution should contain ˜10^8 cfu/ml.
# as §4
# [5] = tested on: green mold/white yeast mixture; assay: “Mold” procedure, green mold/white yeast mixture; conditions: 500 ppm in mozzarella brine
# Method: as §1, §2
# Screening tests identified octanoic acid as a promising antimicrobial additive for salt brines. Table 16 gives results of a challenge test run on actual blue cheese and mozzarella process brine samples sent from a cheese plant. The brines were treated with different concentrations of octanoic acid and then challenged with a yeast cocktail (which included the pink and 3 different white mold types), the green mold+yeast combination, and coliforms. […] The plate counts listed parenthetically as (est) were too numerous to count and were estimated.
# L. monocytogenes [6] = assay: L. monocytogenes cocktail challenge of surfactant/salt solutions at 2° C.; conditions: after 4 hours in solution at 2° C.
# Method: Tests were generally run according to the following procedure:
# (§5) 1. Inoculate a separate tube containing approximately 10 ml of Brain Heart infusion (BHI) broth with the following L. monocytogenes strains: H2446 (CDC Global Standard), Scott A (serotype 4b), 12243 (serotype 1/2a), and two strains isolated from the environment of a cooked meat and poultry facility, designated WP1, and WP4. Incubate the tubes at least 5 days at 7-10° C.+/−2° C. 2. Assume the growth to be 10^9 cfu/ml. Serially dilute each culture in cold (˜7° C.). Butterfield's Phosphate Buffered Water (PBW) to 10^8 cfu/ml (1:10). Since five cultures of L. monocytogenes are being used as a cocktail, begin the dilution series using 2.20 ml of each culture added to 99 ml of PBW. 3. Plate (−6, −7, −8) the diluted culture to get the starting count of the inoculum on Modified Oxford medium (MOX) using a thin agar overlay (TAL) technique (overlay with Trypticase Soy Agar [TSA]) to revive injured cells. 4. Add 1 ml of the diluted cocktail to 100 ml of cold test solution. 5. Mix the solutions well. 6. Determine the L. monocytogenes population at time 0 and 4 hours. Plate −1 (0.1 ml on 1 plate), −2, −3, and −4 dilutions using spread plates on MOX TAL with TSA. 7. Incubate the test solutions at test temperature for the duration of the experiment. 8. Incubate the MOX TAL with TSA plates at 20° C.+/−2° C. for 72+/−3 hours. Count representative colonies, which are black, and multiply by the dilution factor.
# Pink Yeast = assay: Yeast challenge, pink yeast; conditions: after 4 hours in mozzarella cheese brine; Table 19
# Method: as §3
# (§6) In order to determine if the effect of the additive was repeatable, more challenge tests were run on samples of process brine. […] In this test the solutions were challenged with two distinct yeast (a white and a pink) types and coliforms from the samples sent by the cheese plant.
# White Yeast = assay: Yeast challenge, white yeast; conditions: after 4 hours in mozzarella cheese brine; Table 19
# Method: as §3, §6
# L. monocytogenes [7] = assay: L. monocytogenes challenge in beef plant chill brine at 4° C.; conditions: after 4 hours at 4° C.; surfactant added to beef plant brine, approximately 17% sodium chloride
# Method: as §5
# Several tests were carried out to determine the effectiveness of embodiments according to the invention in meat processing chill brines. In one experiment, brine was taken at the end of a production week from a brine chiller used in a ready to eat, cooked beef production line. The sodium chloride concentration in this brine was approximately 17%. Samples of the brine with and without added surfactant were inoculated with a cocktail of L. monocytogenes as per the procedure described above, incubated at 4° C. for four hours, and then plated to determine L. monocytogenes survival.
# [8] = after 4 hours in buffer of 375 ppm acetic acid and 525 ppm sodium acetate, pH 4.74
# [9] = after 4 hours in blue cheese brine taken before or after brining cheese wheels, Table 22
# [10] = about 250 ppm in blue cheese brine
compound,measurement,setting,value
alcohol ethoxylate [15 ppm alcohol ethoxylate],"L. mono biofilm count, 1 hour",L. monocytogenes biofilm,"5,000 cfu/coupon"
same,"L. mono biofilm count, 24 hours",L. monocytogenes biofilm,5600 cfu/coupon
nonylphenolethoxylate [800 ppm nonylphenolethoxylate],Total plate count,[1],40 cfu/mL
"CCCCCCCC(=O)[O-].[Na+] [70 ppm Na Octanoate, sodium octanoate]",Coliform count,[2]; [8],"12,000 cfu/mL"
same,Black Mold count,black mold; [8],510 cfu/mL
same,Yeast Cocktail count,[3]; [8],"7,500 cfu/mL"
"CCCCCCCC(=O)O [250 ppm octanoic acid (after cheese), octanoic acid]",Coliform count,[4]; [9],<10 cfu/mL
same,Black Mold count,black mold; [9],<10 cfu/mL
same,Yeast Cocktail count,[3]; [9],<10 cfu/mL
"[Cl-].[Na+] [24% NaCl, sodium chloride, reference compound]",Coliform count,[2]; [8],"11,000 cfu/mL"
same,Black Mold count,black mold; [8],660 cfu/mL
same,Yeast Cocktail count,[3]; [8],"6,600 cfu/mL"
"CCCCCCCC(=O)O [octanoic acid, octanoic (caprylic) acid]",log kill of coliform,[4]; [10],~3 log
same,log reduction in the coliform count,[2]; 500 ppm in mozzarella brine,2 log
same,log kill of coliforms,"[2]; mozzarella brine, Table 19",~2 log
same,log kill of mold,black mold; [10],~3 log
same,log reduction in the yeast+mold count,[5],2 log
same,log kill of one of the yeast cultures,[3]; 250 ppm in mozzarella brine (so in the source),> 3.76 log
same,log kill of yeast,[3]; [10],~3 log
alcohol ethoxylate [25 ppm alcohol ethoxylate],"L. mono biofilm count, 1 hour",L. monocytogenes biofilm,3500 cfu/coupon
same,"L. mono biofilm count, 24 hours",L. monocytogenes biofilm,250 cfu/coupon
sodium salt of sulfonated oleic acid,Total plate count,[1],5.2 × 10^3 cfu/mL
alcohol ethoxylate [800 ppm alcohol ethoxylate],Total plate count,[1],<10 cfu/mL
alcohol ethoxylate [50 ppm alcohol ethoxylate],L. mono count,"L. monocytogenes [6]; Table 2, different salts and salt concentrations",1.9 × 10^5 cfu/mL
same,"L. mono biofilm count, 1 hour",L. monocytogenes biofilm,10-100 cfu/coupon
same,"L. mono biofilm count, 24 hours",L. monocytogenes biofilm,<10 cfu/coupon
same,log kill of the biofilm within 1 hour,"L. monocytogenes biofilm; very “dirty” brine, −20° C., 1 hour",> 2 log
same,log kill of the biofilm after 24 hours,"L. monocytogenes biofilm; very “dirty” brine, −20° C., 24 hours",> 3 log
"decyl alcohol ethoxylate, POE-6 [800 ppm decyl alcohol ethoxylate, POE-6]",Total plate count,[1],10 cfu/mL
"CCCCCCCC(=O)O [1250 ppm octanoic acid, octanoic acid]",Coliform count,"[2]; after 4 hours in mozzarella cheese brine, Table 19",1.2 × 10^3 cfu/mL
same,Pink Yeast count,Pink Yeast,<10 cfu/mL
same,White Yeast count,White Yeast,<10 cfu/mL
"CCCCCCCC(=O)[O-].[Na+] [140 ppm Na Octanoate, sodium octanoate]",Coliform count,[2]; [8],"7,700 cfu/mL"
same,Black Mold count,black mold; [8],630 cfu/mL
same,Yeast Cocktail count,[3]; [8],"10,000 cfu/mL"
"CCCCCCCC(=O)[O-].[Na+] [35 ppm Na Octanoate, sodium octanoate]",Coliform count,[2]; [8],"7,000 cfu/mL"
same,Black Mold count,black mold; [8],710 cfu/mL
same,Yeast Cocktail count,[3]; [8],"9,000 cfu/mL"
fatty alkanolamide [50 ppm fatty alkanolamide],L. mono count,L. monocytogenes [6]; Table 1,1.1 × 10^4 cfu/mL
same,L. mono count,L. monocytogenes [7],<10 cfu/mL
